According to patent US9409908B2 (priority 2012, dated 2016):
Where a name gives a salt, the structure may show the parent alone.

What was measured:
[1] = biological target: purified human Factor XIa (Homo sapiens (Human), UniProt P03951); assay: biochemical; assay type: biochemical; conditions: read-out: Factor XIa Ki
[2] = biological target: purified human plasma kallikrein (Homo sapiens (Human), UniProt P03952); assay: biochemical; assay type: biochemical; conditions: read-out: Plasma Kallikrein Ki
Chain of purified human plasma kallikrein (P03952 whole entry, looked up): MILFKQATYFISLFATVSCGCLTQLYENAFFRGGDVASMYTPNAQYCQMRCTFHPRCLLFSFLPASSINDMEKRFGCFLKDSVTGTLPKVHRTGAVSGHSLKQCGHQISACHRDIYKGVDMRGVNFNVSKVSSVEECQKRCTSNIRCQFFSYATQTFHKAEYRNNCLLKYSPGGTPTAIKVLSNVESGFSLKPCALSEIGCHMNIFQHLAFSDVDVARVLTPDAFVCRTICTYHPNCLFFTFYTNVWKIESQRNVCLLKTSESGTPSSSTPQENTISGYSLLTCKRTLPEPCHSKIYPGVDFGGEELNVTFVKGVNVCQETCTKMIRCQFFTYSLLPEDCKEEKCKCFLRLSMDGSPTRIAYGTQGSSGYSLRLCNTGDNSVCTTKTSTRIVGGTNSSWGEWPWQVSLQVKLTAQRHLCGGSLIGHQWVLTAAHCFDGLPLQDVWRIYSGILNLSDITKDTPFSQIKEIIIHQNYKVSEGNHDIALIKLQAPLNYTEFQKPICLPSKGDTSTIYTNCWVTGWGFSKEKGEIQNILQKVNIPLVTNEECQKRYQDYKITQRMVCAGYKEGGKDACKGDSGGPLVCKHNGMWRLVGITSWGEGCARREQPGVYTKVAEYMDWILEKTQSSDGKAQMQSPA
Chain of purified human plasma kallikrein (P03952 whole entry partner, looked up): as the sequence (P03952 whole entry, looked up) above

Chain of purified human Factor XIa (P03951 whole entry, looked up): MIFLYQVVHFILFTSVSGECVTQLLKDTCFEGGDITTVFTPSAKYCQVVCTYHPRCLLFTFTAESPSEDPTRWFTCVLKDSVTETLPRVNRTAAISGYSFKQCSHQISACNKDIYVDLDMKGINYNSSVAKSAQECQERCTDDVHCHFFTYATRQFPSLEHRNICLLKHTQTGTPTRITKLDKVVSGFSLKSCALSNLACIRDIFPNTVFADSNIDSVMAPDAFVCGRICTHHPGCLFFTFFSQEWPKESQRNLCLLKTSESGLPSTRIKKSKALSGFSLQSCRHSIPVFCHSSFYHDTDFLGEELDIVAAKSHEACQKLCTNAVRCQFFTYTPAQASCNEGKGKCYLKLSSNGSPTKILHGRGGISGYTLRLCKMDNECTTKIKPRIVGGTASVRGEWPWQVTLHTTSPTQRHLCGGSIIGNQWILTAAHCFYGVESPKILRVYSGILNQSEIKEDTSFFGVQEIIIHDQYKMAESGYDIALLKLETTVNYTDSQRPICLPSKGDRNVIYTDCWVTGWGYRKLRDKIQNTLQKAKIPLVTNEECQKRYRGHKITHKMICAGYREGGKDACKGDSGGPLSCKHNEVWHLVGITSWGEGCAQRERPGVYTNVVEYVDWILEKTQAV
Chain of purified human Factor XIa (P03951 whole entry partner, looked up): as the sequence (P03951 whole entry, looked up) above

Compound: COC(=O)Nc1ccc2c(c1)NC(=O)[C@H](C)CCC[C@H](N1CCC(c3ccnc(N)c3)=CC1=O)c1cc-2ccn1 [Example 154, Methyl N-[(10R,14S)-14-[4-(2-aminopyridin-4-yl)-6-oxo-1,2,3,6-tetrahydropyridin-1-yl]-10-methyl-9-oxo-8,16-diazatricyclo[13.3.1.0^2,7]nonadeca-1(19),2,4,6,15,17-hexaen-5-yl]carbamate, 2 TFA salt]
- Ki [1]: 23.6 nM
- Ki [2]: 118 nM

Compound: C[C@@H]1CCC[C@H](N2CCC(c3c(F)ccc(Cl)c3F)=CC2=O)c2cc(ccn2)-c2ccc(Nc3ccncc3)cc2NC1=O [Example 89, (10R,14S)-14-[4-(3-Chloro-2,6-difluorophenyl)-6-oxo-1,2,3,6-tetrahydropyridin-1-yl]-10-methyl-5-[(pyridin-4-yl)amino]-8,16-diazatricyclo[13.3.1.0^2,7]nonadeca-1(19),2(7),3,5,15,17-hexaen-9-one, 2 TFA salt]
- Ki [1]: 2.43 nM
- Ki [2]: 5 nM

Compound: COC(=O)c1ccc2c(c1)-c1ccnc(c1)[C@@H](N1CCC(c3c(F)ccc(Cl)c3F)=CC1=O)CCC[C@@H](C)C(=O)N2 [Example 144, Methyl (10R,14S)-14-[4-(3-chloro-2,6-difluorophenyl)-6-oxo-1,2,3,6-tetrahydropyridin-1-yl]-10-methyl-9-oxo-8,16-diazatricyclo[13.3.1.0^2,7]nonadeca-1(19),2(7),3,5,15,17-hexaene-4-carboxylate]
- Ki [1]: 186 nM
- Ki [2]: 108 nM

Compound: Cc1nnc(Nc2ccc3c(c2)NC(=O)[C@H](C)CCC[C@H](N2CCC(c4c(F)ccc(Cl)c4F)=CC2=O)c2ccnc-3c2)o1 [Example 37, (10R,14S)-14-[4-(3-Chloro-2,6-difluorophenyl)-6-oxo-1,2,3,6-tetrahydropyridin-1-yl]-10-methyl-5-[(5-methyl-1,3,4-oxadiazol-2-yl)amino]-8,18-diazatricyclo[13.3.1.0^2,7]nonadeca-1(19),2(7),3,5,15,17-hexaen-9-one, TFA salt]
- Ki [1]: 0.87 nM
- Ki [2]: 1 nM

Compound: C[C@@H]1CCC[C@H](N2CCC(c3c(F)ccc(Cl)c3F)=CC2=O)c2cc(ccn2)-c2ccc(NC3O[C@H](CO)[C@@H](O[C@H]4O[C@H](CO)[C@@H](O[C@H]5O[C@H](CO)[C@@H](O)[C@H](O)[C@H]5O)[C@H](O)[C@H]4O)[C@H](O)[C@H]3O)cc2NC1=O (stereo partly drawn) [Example 133, (10R,14S)-14-[4-(3-chloro-2,6-difluorophenyl)-6-oxo-1,2,3,6-tetrahydropyridin-1-yl]-5-{[(3R,4R,5S,6R)-5-{[(2R,3R,4R,5S,6R)-3,4-dihydroxy-6-(hydroxymethyl)-5-{[(2R,3R,4S,5S,6R)-3,4,5-trihydroxy-6-(hydroxymethyl)oxan-2-yl]oxy}oxan-2-yl]oxy}-3,4-dihydroxy-6-(hydroxymethyl)oxan-2-yl]amino}-10-methyl-8,16-diazatricyclo[13.3.1.0^2,7]nonadeca-1(19),2,4,6,15,17-hexaen-9-one]
- Ki [1]: 4.77 nM
- Ki [2]: 12.6 nM

Compound: C[C@@H]1CCC[C@H](N2CCC(c3c(Br)ccc(Cl)c3F)=CC2=O)c2cc(ccn2)-c2ccc(C(=O)O)cc2NC1=O [Example 28, (14S)-14-[4-(6-Bromo-3-chloro-2-fluorophenyl)-6-oxo-1,2,3,6-tetrahydropyridin-1-yl]-10-methyl-9-oxo-8,16-diazatricyclo[13.3.1.0^2,7]nonadeca-1(19),2(7),3,5,15,17-hexaene-5-carboxylic acid, TFA salt]
- Ki [1]: > 443 nM
- Ki [2]: 196 nM

Compound: COCc1nnc(Nc2ccc3c(c2)NC(=O)[C@H](C)CCC[C@H](N2CCC(c4c(F)ccc(Cl)c4F)=CC2=O)c2cc-3ccn2)o1 [Example 41, (10R,14S)-14-[4-(3-Chloro-2,6-difluorophenyl)-6-oxo-1,2,3,6-tetrahydropyridin-1-yl]-5-{[5-(methoxymethyl)-1,3,4-oxadiazol-2-yl]amino}-10-methyl-8,16-diazatricyclo[13.3.1.0^2,7]nonadeca-1(19),2,4,6,15,17-hexaen-9-one, TFA salt]
- Ki [1]: 0.69 nM
- Ki [2]: 2 nM

Compound: C[C@@H]1CCC[C@H](N2CCC(c3c(F)ccc(Cl)c3F)=CC2=O)c2cc(ccn2)-c2c(F)cccc2NC1=O [Example 80, (10R,14S)-14-[4-(3-Chloro-2,6-difluorophenyl)-6-oxo-1,2,3,6-tetrahydropyridin-1-yl]-3-fluoro-10-methyl-8,16-diazatricyclo[13.3.1.0^2,7]nonadeca-1(19),2(7),3,5,15,17-hexaen-9-one, TFA salt]
- Ki [1]: 13.6 nM
- Ki [2]: 38 nM

Compound: C[C@@H]1CCC[C@H](N2CCC(c3c(F)ccc(Cl)c3F)=CC2=O)c2cc(ccn2)-c2cn[nH]c2NC1=O [Example 221, 13-[4-(3-chloro-2,6-difluorophenyl)-6-oxo-1,2,3,6-tetrahydropyridin-1-yl]-9-methyl-4,5,7,15-tetraazatricyclo[12.3.1.0^2,6]octadeca-1(18),2(6),3,14,16-pentaen-8-one, 2TFA salt]
- Ki [1]: > 417 nM
- Ki [2]: 1320 nM

Compound: C[C@@H]1CCC[C@H](N2CCC(c3c(Br)ccc(Cl)c3F)=CC2=O)c2cc(ccn2)-c2ccccc2NC1=O [Example 45, (10R,14S)-14-[4-(6-Bromo-3-chloro-2-fluorophenyl)-6-oxo-1,2,3,6-tetrahydropyridin-1-yl]-10-methyl-8,16-diazatricyclo[13.3.1.0^2,7]nonadeca-1(19),2,4,6,15,17-hexaen-9-one, TFA salt]
- Ki [1]: 2.08 nM
- Ki [2]: 7 nM

Compound: COC(=O)Nc1ccc2c(c1)NC(=O)[C@H](C)CCC[C@H](N1CCC(c3c(F)ccc(Cl)c3F)=C(C)C1=O)c1cc-2ccn1 [Example 64, Methyl N-[(10R,14S)-14-[4-(3-chloro-2,6-difluorophenyl)-5-methyl-6-oxo-1,2,3,6-tetrahydropyridin-1-yl]-10-methyl-9-oxo-8,16-diazatricyclo[13.3.1.0^2,7]nonadeca-1(19),2,4,6,15,17-hexaen-5-yl]carbamate, TFA salt]
- Ki [1]: 16.6 nM
- Ki [2]: 171 nM

Compound: COC(=O)Nc1ccc2c(c1)NC(=O)[C@H](C)CCC[C@H](N1CCC(c3cc(C)ccc3F)=CC1=O)c1cc-2ccn1 [Example 113, Methyl N-[(10R,14S)-14-[4-(2-fluoro-5-methylphenyl)-6-oxo-1,2,3,6-tetrahydropyridin-1-yl]-10-methyl-9-oxo-8,16-diazatricyclo[13.3.1.0^2,7]nonadeca-1(18),2,4,6,15(19),16-hexaen-5-yl]carbamate]
- Ki [1]: 7.24 nM
- Ki [2]: 15.6 nM

Compound: CC1CCC[C@H](N2CCC(c3c(Br)ccc(Cl)c3F)=CC2=O)c2cc(ccn2)-c2ccc(-c3nnc[nH]3)cc2NC1=O (stereo partly drawn) [Example 38, (14S)-14-[4-(6-Bromo-3-chloro-2-fluorophenyl)-6-oxo-1,2,3,6-tetrahydropyridin-1-yl]-10-methyl-5-(4H-1,2,4-triazol-3-yl)-8,16-diazatricyclo[13.3.1.0^2,7]nonadeca-1(19),2(7),3,5,15,17-hexaen-9-one, TFA salt]
- Ki [1]: 2.77 nM
- Ki [2]: 6 nM

Compound: COC(=O)Nc1ccc2c(c1)NC(=O)[C@H](C)CC(=O)C[C@H](N1CCC(c3c(F)ccc(Cl)c3F)=CC1=O)c1cc-2ccn1 [Example 22, Methyl N-[(10R,14S)-14-[4-(3-chloro-2,6-difluorophenyl)-6-oxo-1,2,3,6-tetrahydropyridin-1-yl]-10-methyl-9,12-dioxo-8,16-diazatricyclo[13.3.1.0^2,7]nonadeca-1(19),2,4,6,15,17-hexaen-5-yl]carbamate, TFA salt]
- Ki [1]: > 438 nM
- Ki [2]: 352 nM

Compound: C[C@@H]1CCC[C@H](N2CCC(c3c(C#N)ccc(Cl)c3F)=CC2=O)c2cc(ccn2)-c2cc(F)c(F)cc2NC1=O [Example 211, 4-chloro-2-{1-[(10R,14S)-4,5-difluoro-10-methyl-9-oxo-8,16-diazatricyclo[13.3.1.0^2,7]nonadeca-1(19),2(7),3,5,15,17-hexaen-14-yl]-6-oxo-1,2,3,6-tetrahydropyridin-4-yl}-3-fluorobenzonitrile, TFA salt]
- Ki [1]: 3.26 nM
- Ki [2]: 6.46 nM

Compound: COC(=O)Nc1ccc2c(c1)NC(=O)[C@H](C)CCC[C@H](N1CCC(c3cc(Cl)ccc3C(F)(F)F)=CC1=O)c1cc-2ccn1 [Example 36, Methyl N-[(10R,14S)-14-{4-[5-chloro-2-(trifluoromethyl)phenyl]-6-oxo-1,2,3,6-tetrahydropyridin-1-yl}-10-methyl-9-oxo-8,16-diazatricyclo[13.3.1.0^2,7]nonadeca-1(19),2,4,6,15,17-hexaen-5-yl]carbamate, TFA salt]
- Ki [1]: 0.09 nM
- Ki [2]: 8 nM

Compound: C[C@@H]1CCC[C@H](N2CCC(c3c(F)ccc(Cl)c3F)=CC2=O)c2cc(ccn2)-c2cc3ccc(=O)[nH]c3cc2NC1=O [Example 81, (14R,18S)-18-[4-(3-Chloro-2,6-difluorophenyl)-6-oxo-1,2,3,6-tetrahydropyridin-1-yl]-14-methyl-8,12,20-triazatetracyclo[17.3.1.0^2,11.0^4,9]tricosa-1(23),2,4(9),5,10,19,21-heptaene-7,13-dione, TFA salt]
- Ki [1]: 0.31 nM
- Ki [2]: 1 nM

Compound: C[C@@H]1CCC[C@H](n2ccc(-c3cccc(Cl)c3F)cc2=O)c2cc(ccn2)-c2ccccc2NC1=O [Example 65, (10R,14S)-14-[4-(3-Chloro-2-fluorophenyl)-2-oxo-1,2-dihydropyridin-1-yl]-10-methyl-8,16-diazatricyclo[13.3.1.0^2,7]nonadeca-1(19),2,4,6,15,17-hexaen-9-one, TFA salt]
- Ki [1]: 47.6 nM
- Ki [2]: 53 nM

Compound: C[C@@H]1CCC[C@H](N2CCC(c3c(-c4cccnc4)ccc(Cl)c3F)=CC2=O)c2cc(ccn2)-c2ccccc2NC1=O [Example 58, (10R,14S)-14-{4-[3-Chloro-2-fluoro-6-(pyridin-3-yl)phenyl]-6-oxo-1,2,3,6-tetrahydropyridin-1-yl}-10-methyl-8,16-diazatricyclo[13.3.1.0^2,7]nonadeca-1(19),2,4,6,15,17-hexaen-9-one, TFA salt]
- Ki [1]: 15.1 nM
- Ki [2]: 179 nM

Compound: C[C@@H]1CCC[C@H](N2CCC(c3c(F)ccc(Cl)c3F)=CC2=O)c2cc(ccn2)-c2cc3c(cc2NC1=O)NC(=O)CC3 [Example 86, (14R,18S)-18-[4-(3-Chloro-2,6-difluorophenyl)-6-oxo-1,2,3,6-tetrahydropyridin-1-yl]-14-methyl-8,12,20-triazatetracyclo[17.3.1.0^2,11.0^4,9]tricosa-1(23),2(11),3,9,19,21-hexaene-7,13-dione, TFA salt]
- Ki [1]: 0.72 nM
- Ki [2]: 1 nM
